# Source: patent US20260262643A1, “HERBICIDAL BENZOXAZINES” (FMC CORPORATION, priority 2022, published 2026)
# Key:
# ragweed [1] = experiment: Test C preemergence; format: in vivo, Ambrosia artemisiifolia; settings: for Plant response rating, Ragweed: Preemergence; for Ragweed plant response rating: preemergence
# Outline: (§1)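 Pre: seeds in loam/sand, directed soil spray. Post: 1–2 leaf plants, 2–10 cm. Cmpd in non-phytotoxic solvent + surfactant. Greenhouse 10 d; visual rating vs untreated, 0 = none, 100 = complete control.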
# wheat [2] = experiment: Test C preemergence; format: in vivo, Triticum aestivum; settings: for Plant response rating, Wheat: Preemergence; for Wheat plant response rating: preemergence
# Outline: as §1
# wheat [3] = experiment: Test C postemergence; format: in vivo, Triticum aestivum; settings: 10 days
# Outline: as §1
# ducksalad = experiment: Test D flooded paddy test; format: in vivo, Heteranthera limosa; settings: 250 g ai/ha, applied to paddy water, visual rating after 13 to 14 days, scale 0 to 100 (0 no effect, 100 complete control)
# Outline: (§2)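 Plants at the 2-leaf stage were grown in pots flooded to 3 cm, and compound was applied directly into the paddy water, with depth kept throughout. After 13–14 days in a greenhouse, injury was rated visually against untreated controls on a 0–100 scale (100 = complete control); a dash means not tested.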
# soybean [4] = experiment: Test C postemergence; format: in vivo, Glycine max; settings: 10 days
# Outline: as §1
# barnyardgrass [5] = experiment: Test D flooded paddy test; format: in vivo, Echinochloa crus-galli; settings: 250 g ai/ha, applied to paddy water, visual rating after 13 to 14 days, scale 0 to 100 (0 no effect, 100 complete control)
# Outline: as §2
# green foxtail [6] = experiment: Test C postemergence; format: in vivo, Setaria viridis; settings: 10 days
# Outline: as §1
# ryegrass, Italian [7] = experiment: Test C postemergence; format: in vivo, Lolium multiflorum; settings: 10 days
# Outline: as §1
# oat, wild [8] = experiment: Test C preemergence; format: in vivo, Avena fatua; settings: for Plant response rating, Oat, Wild: Preemergence; for Oat, Wild plant response rating: preemergence
# Outline: as §1
# sedge, umbrella = experiment: Test D flooded paddy test; format: in vivo, Cyperus difformis; settings: 250 g ai/ha, applied to paddy water, visual rating after 13 to 14 days, scale 0 to 100 (0 no effect, 100 complete control)
# Outline: as §2
# barnyardgrass [9] = experiment: Test C preemergence; format: in vivo, Echinochloa crusgalli; settings: for Plant response rating, Barnyardgrass: Preemergence; for Barnyardgrass plant response rating: preemergence
# Outline: as §1
# pigweed, palmer [10] = experiment: Test C postemergence; format: in vivo, Amaranthus palmeri; settings: 10 days
# Outline: as §1
# pigweed, palmer [11] = experiment: Test C preemergence; format: in vivo, Amaranthus palmeri; settings: for Plant response rating, Pigweed, Palmer: Preemergence; for Pigweed, Palmer plant response rating: preemergence
# Outline: as §1
# rice = experiment: Test D flooded paddy test; format: in vivo, Oryza sativa; settings: 250 g ai/ha, applied to paddy water, visual rating after 13 to 14 days, scale 0 to 100 (0 no effect, 100 complete control)
# Outline: as §2
# barnyardgrass [12] = experiment: Test C postemergence; format: in vivo, Echinochloa crusgalli; settings: 10 days
# Outline: as §1
# corn [13] = experiment: Test C preemergence; format: in vivo, Zea mays; settings: for Plant response rating, Corn: Preemergence; for Corn plant response rating: preemergence
# Outline: as §1
# ragweed [14] = experiment: Test C postemergence; format: in vivo, Ambrosia artemisiifolia; settings: 10 days
# Outline: as §1
# oat, wild [15] = experiment: Test C postemergence; format: in vivo, Avena fatua; settings: 10 days
# Outline: as §1
# blackgrass [16] = experiment: Test C preemergence; format: in vivo, Alopecurus myosuroides; settings: for Plant response rating, Blackgrass: Preemergence; for Blackgrass plant response rating: preemergence
# Outline: as §1
# horseweed = experiment: Test C postemergence; format: in vivo, Erigeron canadensis; settings: 10 days
# Outline: as §1
# corn [17] = experiment: Test C postemergence; format: in vivo, Zea mays; settings: 10 days
# Outline: as §1
# galium = experiment: Test C postemergence; format: in vivo, Galium aparine; settings: 10 days
# Outline: as §1
# green foxtail [18] = experiment: Test C preemergence; format: in vivo, Setaria viridis; settings: for Plant response rating, Foxtail, Green: Preemergence; for Foxtail, Green plant response rating: preemergence
# Outline: as §1
# kochia [19] = experiment: Test C preemergence; format: in vivo, Bassia scoparia; settings: for Plant response rating, Kochia: Preemergence; for Kochia plant response rating: preemergence
# Outline: as §1
# soybean [20] = experiment: Test C preemergence; format: in vivo, Glycine max; settings: for Plant response rating, Soybean: Preemergence; for Soybean plant response rating: preemergence
# Outline: as §1
# blackgrass [21] = experiment: Test C postemergence; format: in vivo, Alopecurus myosuroides; settings: 10 days
# Outline: as §1
# kochia [22] = experiment: Test C postemergence; format: in vivo, Bassia scoparia; settings: 10 days
# Outline: as §1
# ryegrass, Italian [23] = experiment: Test C preemergence; format: in vivo, Lolium multiflorum; settings: for Plant response rating, Ryegrass, Italian: Preemergence; for Ryegrass, Italian plant response rating: preemergence
# Outline: as §1
# [24] = 500 g ai/ha, visual rating after 10 days, 0 to 100 scale (0 no effect, 100 complete control)
# [25] = Test C, 125 g ai/ha, 0 to 100 scale (0 no effect, 100 complete control)
# [26] = 125 g ai/ha, postemergence, 0 to 100 scale, 0 no effect, 100 complete control
# [27] = Postemergence, 500 g ai/ha, visual 0 to 100 scale (0 no effect, 100 complete control)
# [28] = 500 g ai/ha, 0 to 100 scale (0 no effect, 100 complete control)
# [29] = 125 g ai/ha, 0 to 100 scale, 0 no effect, 100 complete control
# [30] = 500 g ai/ha, postemergence, 0 to 100 scale (0 no effect, 100 complete control)
# [31] = Postemergence, 125 g ai/ha, 0 to 100 scale (0 no effect, 100 complete control)
smiles,measurement,setting,value
COc1ccc(-n2cnc(C(C)C)n2)cc1C(=O)N1C[C@H](C)Oc2c(C)cccc21 [Compound 210],"Plant response rating, Ragweed",ragweed [1]; [24],80
same,Ragweed plant response rating,ragweed [1]; [25],30
same,"Plant response rating, Wheat",wheat [2]; [24],90
same,Wheat plant response rating,wheat [2]; [25],90
same,"Plant response rating, Wheat",wheat [3]; [26],50
same,"Plant response rating, Wheat",wheat [3]; [27],90
same,"Plant response rating, Ducksalad (Flood)",ducksalad,85
same,"Plant response rating, Soybean",soybean [4]; [26],0
same,"Plant response rating, Soybean",soybean [4]; [27],10
same,"Plant response rating, Barnyardgrass (Flood)",barnyardgrass [5],20
same,"Plant response rating, Foxtail, Green",green foxtail [6]; [26],90
same,"Plant response rating, Foxtail, Green",green foxtail [6]; [27],90
same,"Plant response rating, Ryegrass, Italian","ryegrass, Italian [7]; [26]",60
same,"Plant response rating, Ryegrass, Italian","ryegrass, Italian [7]; [27]",90
same,"Plant response rating, Oat, Wild","oat, wild [8]; [24]",90
same,"Oat, Wild plant response rating","oat, wild [8]; [25]",60
same,"Plant response rating, Sedge, Umbrella (Flood)","sedge, umbrella",100
same,"Plant response rating, Barnyardgrass",barnyardgrass [9]; [24],100
same,Barnyardgrass plant response rating,barnyardgrass [9]; [25],100
same,"Plant response rating, Pigweed, Palmer","pigweed, palmer [10]; [26]",90
same,"Plant response rating, Pigweed, Palmer","pigweed, palmer [10]; [27]",100
same,"Plant response rating, Pigweed, Palmer","pigweed, palmer [11]; [24]",100
same,"Pigweed, Palmer plant response rating","pigweed, palmer [11]; [25]",100
same,"Plant response rating, Rice (Flood)",rice,15
same,"Plant response rating, Barnyardgrass",barnyardgrass [12]; [26],50
same,"Plant response rating, Barnyardgrass",barnyardgrass [12]; [27],100
same,"Plant response rating, Corn",corn [13]; [24],60
same,Corn plant response rating,corn [13]; [25],30
same,"Plant response rating, Ragweed",ragweed [14]; [26],60
same,"Plant response rating, Ragweed",ragweed [14]; [27],80
same,"Plant response rating, Oat, Wild","oat, wild [15]; [26]",80
same,"Plant response rating, Oat, Wild","oat, wild [15]; [27]",80
same,"Plant response rating, Blackgrass",blackgrass [16]; [24],100
same,Blackgrass plant response rating,blackgrass [16]; [25],80
same,"Plant response rating, Horseweed",horseweed; [26],80
same,"Plant response rating, Horseweed",horseweed; [27],80
same,"Plant response rating, Corn",corn [17]; [26],80
same,"Plant response rating, Corn",corn [17]; [27],90
same,"Plant response rating, Galium",galium; [26],100
same,"Plant response rating, Galium",galium; [27],100
same,"Plant response rating, Foxtail, Green",green foxtail [18]; [24],100
same,"Foxtail, Green plant response rating",green foxtail [18]; [25],100
same,"Plant response rating, Kochia",kochia [19]; [24],100
same,Kochia plant response rating,kochia [19]; [25],90
same,"Plant response rating, Soybean",soybean [20]; [24],100
same,Soybean plant response rating,soybean [20]; [25],90
same,"Plant response rating, Blackgrass",blackgrass [21]; [26],90
same,"Plant response rating, Blackgrass",blackgrass [21]; [27],90
same,"Plant response rating, Kochia",kochia [22]; [26],70
same,"Plant response rating, Kochia",kochia [22]; [27],90
same,"Plant response rating, Ryegrass, Italian","ryegrass, Italian [23]; [24]",100
same,"Ryegrass, Italian plant response rating","ryegrass, Italian [23]; [25]",100
CCOCC1CN(C(=O)c2cc(-n3cnc(C4CCC4)n3)ccc2OC)c2cccc(Cl)c2O1 (centres unmarked) [Compound 377],Ragweed plant response rating,ragweed [1]; [28],70
same,"Plant response rating, Ragweed",ragweed [1]; [29],30
same,Wheat plant response rating,wheat [2]; [28],20
same,"Plant response rating, Wheat",wheat [2]; [29],0
same,"Plant response rating, Wheat",wheat [3]; [30],30
same,"Plant response rating, Wheat",wheat [3]; [31],20
same,"Plant response rating, Ducksalad (Flood)",ducksalad,15
same,"Plant response rating, Soybean",soybean [4]; [30],100
same,"Plant response rating, Soybean",soybean [4]; [31],100
same,"Plant response rating, Barnyardgrass (Flood)",barnyardgrass [5],0
same,"Plant response rating, Foxtail, Green",green foxtail [6]; [30],40
same,"Plant response rating, Foxtail, Green",green foxtail [6]; [31],20
same,"Plant response rating, Ryegrass, Italian","ryegrass, Italian [7]; [30]",50
same,"Plant response rating, Ryegrass, Italian","ryegrass, Italian [7]; [31]",40
same,"Oat, Wild plant response rating","oat, wild [8]; [28]",20
same,"Plant response rating, Oat, Wild","oat, wild [8]; [29]",20
same,"Plant response rating, Sedge, Umbrella (Flood)","sedge, umbrella",55
same,Barnyardgrass plant response rating,barnyardgrass [9]; [28],100
same,"Plant response rating, Barnyardgrass",barnyardgrass [9]; [29],40
same,"Plant response rating, Pigweed, Palmer","pigweed, palmer [10]; [30]",100
same,"Plant response rating, Pigweed, Palmer","pigweed, palmer [10]; [31]",90
same,"Pigweed, Palmer plant response rating","pigweed, palmer [11]; [28]",100
same,"Plant response rating, Pigweed, Palmer","pigweed, palmer [11]; [29]",100
same,"Plant response rating, Rice (Flood)",rice,0
same,"Plant response rating, Barnyardgrass",barnyardgrass [12]; [30],50
same,"Plant response rating, Barnyardgrass",barnyardgrass [12]; [31],30
same,Corn plant response rating,corn [13]; [28],20
same,"Plant response rating, Corn",corn [13]; [29],0
same,"Plant response rating, Ragweed",ragweed [14]; [30],90
same,"Plant response rating, Ragweed",ragweed [14]; [31],80
same,"Plant response rating, Oat, Wild","oat, wild [15]; [30]",0
same,"Plant response rating, Oat, Wild","oat, wild [15]; [31]",0
same,Blackgrass plant response rating,blackgrass [16]; [28],20
same,"Plant response rating, Blackgrass",blackgrass [16]; [29],0
same,"Plant response rating, Horseweed",horseweed; [30],30
same,"Plant response rating, Horseweed",horseweed; [31],50
same,"Plant response rating, Corn",corn [17]; [30],30
same,"Plant response rating, Corn",corn [17]; [31],20
same,"Plant response rating, Galium",galium; [30],100
same,"Plant response rating, Galium",galium; [31],100
same,"Foxtail, Green plant response rating",green foxtail [18]; [28],100
same,"Plant response rating, Foxtail, Green",green foxtail [18]; [29],50
same,Kochia plant response rating,kochia [19]; [28],100
same,"Plant response rating, Kochia",kochia [19]; [29],70
same,Soybean plant response rating,soybean [20]; [28],90
same,"Plant response rating, Soybean",soybean [20]; [29],60
same,"Plant response rating, Blackgrass",blackgrass [21]; [30],20
same,"Plant response rating, Blackgrass",blackgrass [21]; [31],0
same,"Plant response rating, Kochia",kochia [22]; [30],90
same,"Plant response rating, Kochia",kochia [22]; [31],90
same,"Ryegrass, Italian plant response rating","ryegrass, Italian [23]; [28]",70
same,"Plant response rating, Ryegrass, Italian","ryegrass, Italian [23]; [29]",60
